Data on 19 compounds can be found in US20160039778A1, “TRPV-1 RECEPTOR ANTAGONIST COMPOUND DERIVED FROM 1,3,4-THIADIAZOLE ALKYLAMIDES AND CHALCONES” (UNIVERSIDAD DE CONCEPCION, priority 2012, published 2016).

Like-named read-outs stand apart in the source and are kept apart here.

One data set addresses T1, rat TRPV-1 receptor (Rattus norvegicus, UniProt O35433).
T1 construct: expressed in transfected cells; host or cells: HEK-293T
The data set can be described thus: Dose response curve, temperature activation of the TRPV-1 receptor in transfected HEK-293T cells. It is filed as cell-based. The following applies: relative fluorescence at 50° C., HEK-293T cells transfected with rat TRPV-1, two independent experiments, ± standard deviation. The procedure:
The synthesized compounds were evaluated in HEK-293T cell cultures transfected with cDNA from rat TRPV receptors. […] The influx of calcium was measured with a fluorescent probe, Fluo 4-AM, as in the presence of an antagonist the calcium influx is blocked by the inactivation of the TRPV-1 receptor and cellular fluorescence decreases.
The HEK-293T cells were cultured in a DMEM medium supplemented with 5% fetal bovine serum, 50 U/ml penicillin, […] streptomycin and 2 mM L-glutamine. The cultures were kept at 37°, in a 5% CO2 environment, with 80% relative humidity.
The HEK-293T cells were transfected with rat TPRV-1 pcDNA3, 97 μOpti-MEM and 3 μL of Lipofectamine 2000 were added to a reaction tube and to a second tube 1 μg of DNA and one volume of Opti-MEM were added to complete 100 μL. Both tubes were incubated for 10 minutes, after which they were mixed and incubated for another 15 minutes.
After 48 hours of transfection the cells were treated with 200 μL of trypsin, left to incubate for 5 minutes at room temperature, then gently pipetted and transposed to a 15 ml tube. After being centrifuged at a speed of 6,000 rpm for 10 minutes, the cells were re-suspended in 1 ml of Ringer medium, adding 1 μl of Fluo-4AM 1000×, and incubated at 37° C. for half an hour. After being centrifuged and washed with pH 7.34 PBS 1× to remove the excess probe the cell pellet was re-suspended in 1.5 ml of Ringer medium.
Once the rat TRPV-1 receptor had been transfected, Fluo-4 AM charged HEK 293T cells were plated out in 48-well plates at a cellular density of 50,000 cells per well, with a transfection percentage of 40-50%. Subsequently 2 μL/well of each assayed compound were added and the cells left to incubate at room temperature for 5-10 minutes before the execution of the experiment by temperature. The fluorescence measurements were then read on a real time PCR system that allows an increment of 1° C. every 35 seconds from 36° C. to 55° C. for compounds and from 22-56° C. for transfected cells in absence of compounds. Reading of the fluorescence measurement was done using a FAM filter ([…]). […] The values were then normalized, the data being expressed as relative fluorescence, which is the ratio between the fluorescence variation and the base line.
An assay was carried out on temperature activation of the TRPV-1 receptor by incubating the transfected and Fluo-4AM charged HEK-293T cells in the presence of different concentrations of each compound assayed: 1 μM; 0.1 μM; 0.01 μM; 0.003 μM; 0.001μM; 0.0003 μM, 0.0001 μM y 0.00001 μM. The relative fluorescence data obtained at 50° C. was then used to calculate the fluorescence ratio, which is presented as normalized in relation to the relative fluorescence at initial concentration. In this way, the fluorescence ratios obtained through two independent experiments were averaged and expressed with the respective standard deviation.

The next data set addresses TRPV1 receptor. The following applies: cited from earlier work; for selectivity for the TRPV-1 receptor: literature statement.
The conditions of data set [1]: literature statement; cited from earlier work.
The conditions of data set [2]: literature statement; cited from earlier work. This is another data set of the same source.
For data set [3] the following is noted: literature statement; cited from earlier work. This is another data set of the same source.
[4] abbreviates: read-out: half maximal inhibitory concentration (IC50), TRPV1 antagonist.
Where [5] appears, read: literature value, read-out: half maximal inhibitory concentration (IC50), TRPV1 antagonist.
Where [6] appears, read: 1,3,4-thiadiazole alkylamide derivatives.

T1 sequence (O35433 whole entry): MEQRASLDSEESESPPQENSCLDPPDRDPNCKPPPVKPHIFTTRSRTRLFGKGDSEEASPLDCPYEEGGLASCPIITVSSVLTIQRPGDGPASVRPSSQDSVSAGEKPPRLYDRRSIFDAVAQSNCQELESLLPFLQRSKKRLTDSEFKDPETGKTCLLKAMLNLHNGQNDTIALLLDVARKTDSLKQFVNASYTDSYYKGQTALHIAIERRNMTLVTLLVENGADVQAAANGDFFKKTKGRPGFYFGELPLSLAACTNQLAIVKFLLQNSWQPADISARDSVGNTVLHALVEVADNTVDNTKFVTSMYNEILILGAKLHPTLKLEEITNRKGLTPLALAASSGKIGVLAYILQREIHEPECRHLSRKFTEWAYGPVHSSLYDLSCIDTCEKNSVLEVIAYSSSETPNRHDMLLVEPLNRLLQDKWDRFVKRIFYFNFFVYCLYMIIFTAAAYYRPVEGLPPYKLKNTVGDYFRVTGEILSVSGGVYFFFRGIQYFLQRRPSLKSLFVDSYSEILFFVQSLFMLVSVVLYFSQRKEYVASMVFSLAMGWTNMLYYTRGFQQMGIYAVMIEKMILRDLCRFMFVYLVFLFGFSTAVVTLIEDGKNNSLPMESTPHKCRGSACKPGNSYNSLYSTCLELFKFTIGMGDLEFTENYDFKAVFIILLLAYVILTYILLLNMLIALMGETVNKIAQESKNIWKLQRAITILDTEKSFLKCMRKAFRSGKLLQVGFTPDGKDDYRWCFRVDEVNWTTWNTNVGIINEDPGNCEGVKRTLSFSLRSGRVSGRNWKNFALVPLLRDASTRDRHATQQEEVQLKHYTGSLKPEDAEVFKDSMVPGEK

At rat TRPV-1 receptor (chalcone derivatives), `COc1cc(C=C(Cl)C(=O)c2ccccc2)ccc1O` (stereo in doubt) [q, (2E)-chloro-3-(4-hydroxy-3-methoxyphenyl)-1-phenyl prop-2-en-1-one] registered an IC50 of 0.257 ± 0.016 nM.

For the compound `CCCCCCCCC(=O)NCc1cc(I)c(O)c(OC)c1` [5-iodononivamide], the IC50 at TRPV1 receptor (setting [4]) was 10 nM.

For `C=C(C)[C@]12C[C@@H](C)[C@@]34O[C@](Cc5ccccc5)(O[C@@H]1[C@@H]3C=C(COC(=O)Cc1cc(I)c(O)c(OC)c1)C[C@]1(O)C(=O)C(C)=C[C@@H]41)O2` [5-iodoresiniferatoxin], the IC50 on TRPV1 receptor (setting [5]) was 0.4 nM.

Turning to `CCCCCCCCC(=O)NCc1cc(OC)c(O)cc1I` [6-iodononivamide], the IC50 on TRPV1 receptor (setting [4]) was 126 nM.

In the case of `CC(C)(C)c1ccc(/C=C/C(=O)Nc2ccc3c(c2)OCCO3)cc1` [(E)-3-(4-t-butylphenyl)-N-(2,3-dihydrobenzo[b][1,4]dioxin-6-yl)acrylamide], the IC50 on TRPV1 receptor (literature value, read-out: antagonistic activity IC50) was 79 nM.

Turning to `CC(C)(C)c1ccc(NC(=O)N2CCN(c3ncccc3Cl)CC2)cc1` [BCTC, N-(4-tertiarybutylphenyl)-4-(3-cholorphyridin-2-yl)tetrahydropyrazine-1(2H)-carbox-amide], the aqueous solubility result in data set [1] was “poor”. Further, the metabolic stability entry in data set [2] is listed as “low”. Besides, in data set [3], the half-life result is reported as “short” and the oral bioavailability entry is “moderate”. Also, on TRPV1 receptor (depending on the type of species (rat, mouse or human) of the TRPV1 receptor, literature value, read-out: half maximal inhibitory concentration (IC50), TRPV1 antagonist), the IC50 was 2 to 6 nM.

`CCCCCCCCC(=O)Nc1nnc(-c2cc(I)c(O)c(OC)c2)s1` [a, N-[5-(4-hydroxy-5-methoxy-3-iodophenyl)-1,3,4-thiadiazole-2-yl]-nonamide] yielded an IC50 against rat TRPV-1 receptor (setting [6]) of 0.046 ± 0.004 nM.

As for `CCCCCCCCC(=O)Nc1nnc(-c2ccc(O)c(OC)c2)s1` [b, N-[5-(4-hydroxy-3-methoxyphenyl)-1,3,4-thiadiazole-2-yl]-nonamide], the IC50 at rat TRPV-1 receptor (setting [6]) is 0.145 ± 0.051 nM.

For the compound `Oc1cc2c(cc1O)CN(C(=S)NCCc1ccc(Cl)cc1)CCC2` [capsazepine], the metabolic stability entry in data set [2] is “metabolically unstable”. For the same compound, the “selectivity for the TRPV-1 receptor” value in the data set on TRPV1 receptor was “low selectivity”. Moreover, the IC50 at TRPV1 receptor (setting [5]) was 56.2 nM.

Turning to `CCCCCCCC(=O)Nc1nnc(-c2ccc(O)c(OC)c2)s1` [d, N-[5-(4-hydroxy-3-methoxyfenil)-1,3,4-thiadiazole-2-yl]-octanamide], the IC50 against rat TRPV-1 receptor (setting [6]) stood at 1.09 ± 0.497 nM.

In the case of `CCCCCCC(=O)Nc1nnc(-c2cc(I)c(O)c(OC)c2)s1` [e, N-[5-(4-hydroxy-5-methoxy-3-iodophenyl)-1,3,4-thiadiazole-2-yl]heptanamide], the IC50 against rat TRPV-1 receptor (setting [6]) came to 1.263 ± 0.009 nM.

Consider `CCCCCC(=O)Nc1nnc(-c2ccc(O)c(OC)c2)s1` [h, N-[5-(4-hydroxy-3-methoxyfenil)-1,3,4-thiadiazole-2-yl]-hexanamide], for which the IC50 against rat TRPV-1 receptor (setting [6]) worked out at 0.298 ± 0.026 nM.

Take `O=C(/C=C/c1ccccc1)c1ccc(Br)cc1` [i]: the IC50 at rat TRPV-1 receptor (chalcone derivatives) is 1.02 ± 0.206 nM.

As for `COc1ccc(/C=C/C(=O)c2ccc(Br)cc2)cc1` [j, (2E)-1-(4-bromophenyl)-3-(4-methoxyphenyl) prop-2-en-1-one], at rat TRPV-1 receptor (chalcone derivatives), the IC50 came out at 3.89 ± 0.225 nM.

Turning to `[La]` [lanthanum], in the data set with TRPV1 receptor, the “selectivity for the TRPV-1 receptor” value is “lack selectivity”. For the same compound, the “concentration at which activity is presented” value in the data set with TRPV1 receptor (non-competitive antagonist, blocks the ionic channel, literature value) is not below 100 µM.

Turning to `O=C(/C=C/c1ccccc1)/C=C/c1ccccc1` [m, (1E, 4E)-1,5-diphenyl penta-1,4-dien-3-one], the IC50 against rat TRPV-1 receptor (chalcone derivatives) turned out to be 7.55 ± 1.9 nM.

At rat TRPV-1 receptor (chalcone derivatives), `O=C(/C=C/c1ccc(O)cc1)/C=C/c1ccc(O)cc1` [n, (1E, 4E)-1,5-(4-hydroxyphenyl) penta-1,4-dien-3-one] showed an IC50 of 0.184 ± 0.023 nM.

Take `C=C(C)[C@]12C[C@@H](C)[C@@]34O[C@](Cc5ccccc5)(O[C@@H]1[C@@H]3C=C(COC(=O)Cc1ccc(O)c(OC)c1)C[C@]1(O)C(=O)C(C)=C[C@@H]41)O2` [resiniferatoxin]: in the data set with TRPV1 receptor, the “agonist potency relative to capsaicin” value is given as 10 times.

As for `N.N.N.N.N.N.N.N.N.N.N.N.N.N.[Cl-].[Cl-].[Cl-].[Cl-].[Cl-].[Cl-].[O-2].[O-2].[Ru+3].[Ru+3].[Ru+4]` [ruthenium red], the “selectivity for the TRPV-1 receptor” value in the data set on TRPV1 receptor is listed as “lack selectivity”. In addition, on TRPV1 receptor (non-competitive antagonist, blocks the ionic channel, literature value, read-out: antagonistic activity IC50), the IC50 is 170 nM.
